Drawing on ChEMBL document CHEMBL1130494, “Design and synthesis of a targeted set of aromatic amino acid derivatives for identification of new lead compounds” (Bioorg Med Chem Lett, 1997), this text covers Ki and IC50 for one compound.

For experiment [1], the target named is Neuromedin-B receptor (Homo sapiens, UniProt P28336). Nature of the experiment: Binding affinity for human neuromedin B(hNMB) receptor expressed in CHO cells. It is filed as cell-based.
For experiment [2], the target named is T1, Cholecystokinin receptor type A (Rattus norvegicus, UniProt P30551).
T1 sequence (P30551 whole entry): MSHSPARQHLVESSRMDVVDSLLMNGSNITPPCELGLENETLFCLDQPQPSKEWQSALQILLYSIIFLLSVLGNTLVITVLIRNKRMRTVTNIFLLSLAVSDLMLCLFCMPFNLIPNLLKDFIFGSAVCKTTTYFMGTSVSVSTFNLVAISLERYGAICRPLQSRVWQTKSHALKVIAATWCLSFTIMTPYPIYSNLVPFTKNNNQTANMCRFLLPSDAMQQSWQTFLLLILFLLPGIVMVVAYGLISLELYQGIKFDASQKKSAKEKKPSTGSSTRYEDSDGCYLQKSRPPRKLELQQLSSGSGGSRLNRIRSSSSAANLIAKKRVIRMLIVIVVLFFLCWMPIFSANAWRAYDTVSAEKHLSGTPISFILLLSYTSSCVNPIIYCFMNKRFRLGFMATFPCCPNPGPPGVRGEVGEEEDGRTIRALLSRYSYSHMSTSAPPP
In words: Concentration required for binding affinity to neuropeptide (CCK-A) receptor in rat pancrea.

Sequence of Neuromedin-B receptor (P28336 whole entry): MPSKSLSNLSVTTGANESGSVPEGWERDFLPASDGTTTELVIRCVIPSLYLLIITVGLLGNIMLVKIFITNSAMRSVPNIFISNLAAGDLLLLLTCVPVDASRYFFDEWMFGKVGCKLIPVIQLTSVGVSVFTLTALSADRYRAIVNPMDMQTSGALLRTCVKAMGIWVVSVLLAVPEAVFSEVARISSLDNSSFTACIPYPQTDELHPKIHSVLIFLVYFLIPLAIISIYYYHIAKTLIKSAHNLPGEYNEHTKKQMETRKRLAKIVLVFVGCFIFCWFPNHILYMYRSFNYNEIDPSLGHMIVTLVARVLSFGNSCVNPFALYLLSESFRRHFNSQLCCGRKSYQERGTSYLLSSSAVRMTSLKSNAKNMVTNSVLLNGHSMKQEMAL

The term Ki denotes the dissociation constant of the complex between target and ligand, obtained from inhibition or displacement. For orientation: IC50 means the concentration that gives 50% inhibition. The low end stands for higher potency, the high end for lower potency. As for `O=C(N[C@@H](Cc1c[nH]c2ccccc12)C(=O)NCCc1c[nH]c2ccccc12)OCc1ccccc1`, the inhibition constant Ki in experiment [1] stood at 2.8 µM. Besides, in experiment [2], the IC50 turned out to be 0.45 µM.
